Columns and labels:
Type in all cases: in vivo
Sphaerotheca fuliginea = test: Test of examining control effect on Sphaerotheca fuliginea (potted cucumber plants); conditions: Podosphaera fuliginea, 336 h; 10% wettable powder adjusted to 125 ppm, 15 ml/pot sprayed on potted cucumber plants one day before spray inoculation; assessed after 14 days in greenhouse; read-out: Determination of control effect (preventive value) on Sphaerotheca fuliginea
Method in brief: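 Control effect rated high at preventive value 60–100% and low below 60%, from lesion area relative to untreated plants 14 days after spray inoculation with S. fuliginea (1.0×10^5 cells/ml). Compound applied at 125 ppm as wettable-powder spray one day before inoculation, on 2nd-leaf-stage Sagamihanjiro cucumber.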

Phytophthora infestans = test: whole plant or invertebrate; conditions: in Solanum lycopersicum, 96 h, read-out: Determination of control effect (preventive value)
[1] = tested on: Pseudoperonospora cubensis; test: Test of examining control effect on Pseudoperonospora cubensis (potted cucumber plants); conditions: 96 h, 10% wettable powder adjusted to 125 ppm, 15 ml/pot sprayed on potted cucumber plants one day before spray inoculation, assessed after 1 day wet chamber and 3 days greenhouse, read-out: Determination of control effect (preventive value) on Pseudoperonospora cubensis
Method in brief: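 Preventive treatment: 125 ppm sample agent solution (from 10% wettable powder) sprayed at 15 ml/pot on 2.5-leaf Sagamihanjiro cucumbers, then P. cubensis inoculated next day at 1.0×10^4 cells/ml. Incubation was 1 day wet at 21° C plus 3 days greenhouse. Lesion area rate compared with untreated gives preventive value (≥60% high).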

C(#Cc1ccccc1-c1ccccc1)CCNc1ncnc2ccccc12 [compound 114]
pest or weed control at 125 µg/mL (Sphaerotheca fuliginea): 60 to 100%
pest or weed control at 125 ppm (Phytophthora infestans): 0 to 60%
pest or weed control at 125 µg/mL [1]: 60 to 100%

COC(=O)c1ccc(C#CCCNc2ncnc3sccc23)cc1 [compound 31]
pest or weed control at 125 µg/mL (Sphaerotheca fuliginea): 0 to 60%
pest or weed control at 125 ppm (Phytophthora infestans): 0 to 60%
pest or weed control at 125 µg/mL [1]: 60 to 100%

CC(CC#Cc1ccccc1Cl)Nc1ncnc2ccccc12 (stereo not drawn) [compound 272]
pest or weed control at 125 µg/mL (Sphaerotheca fuliginea): 60 to 100%
pest or weed control at 125 ppm (Phytophthora infestans): 60 to 100%
pest or weed control at 125 µg/mL [1]: 60 to 100%

CN1C(=O)c2ccc(C#CCCNc3ncnc4sccc34)cc2C1=O [compound 84]
pest or weed control at 125 µg/mL (Sphaerotheca fuliginea): 0 to 60%
pest or weed control at 125 ppm (Phytophthora infestans): 60 to 100%
pest or weed control at 125 µg/mL [1]: 60 to 100%

CS(=O)(=O)c1ncnc(NCCC#Cc2ccccc2C(F)(F)F)c1[N+](=O)[O-] [compound 369]
pest or weed control at 125 µg/mL (Sphaerotheca fuliginea): 0 to 60%
pest or weed control at 125 ppm (Phytophthora infestans): 0 to 60%
pest or weed control at 125 µg/mL [1]: 0 to 60%

FC(F)(F)c1ccc(C#CCCNc2ncnc3ccccc23)c(Cl)c1 [compound 182]
pest or weed control at 125 µg/mL (Sphaerotheca fuliginea): 60 to 100%
pest or weed control at 125 ppm (Phytophthora infestans): 0 to 60%
pest or weed control at 125 µg/mL [1]: 60 to 100%

COCc1ccccc1C#CCCNc1ncnc2ccc(Cl)cc12 [compound 313]
pest or weed control at 125 µg/mL (Sphaerotheca fuliginea): 60 to 100%
pest or weed control at 125 ppm (Phytophthora infestans): 0 to 60%
pest or weed control at 125 µg/mL [1]: 60 to 100%

COc1ccc2nc(C#CCCNc3ncnc4sccc34)sc2c1 [compound 85]
pest or weed control at 125 µg/mL (Sphaerotheca fuliginea): 60 to 100%
pest or weed control at 125 ppm (Phytophthora infestans): 60 to 100%
pest or weed control at 125 µg/mL [1]: 60 to 100%

COc1cccc2c(NC(C)CC#Cc3ccc(Cl)cc3C(F)(F)F)ncnc12 (stereo not drawn) [compound 352]
pest or weed control at 125 µg/mL (Sphaerotheca fuliginea): 60 to 100%
pest or weed control at 125 ppm (Phytophthora infestans): 0 to 60%
pest or weed control at 125 µg/mL [1]: 60 to 100%

CS(=O)(=O)Cc1ccccc1C#CCCNc1ncnc2ccccc12 [compound 162]
pest or weed control at 125 µg/mL (Sphaerotheca fuliginea): 0 to 60%
pest or weed control at 125 ppm (Phytophthora infestans): 0 to 60%
pest or weed control at 125 µg/mL [1]: 60 to 100%

CC[Si](C#CCCNc1ncnc2sccc12)(CC)CC [compound 3]
pest or weed control at 125 µg/mL (Sphaerotheca fuliginea): 60 to 100%
pest or weed control at 125 ppm (Phytophthora infestans): 0 to 60%
pest or weed control at 125 µg/mL [1]: 60 to 100%

Cc1ncnc(NC(C)CC#Cc2ccc(Cl)cc2C(F)(F)F)c1I (stereo not drawn) [compound 386]
pest or weed control at 125 µg/mL (Sphaerotheca fuliginea): 60 to 100%
pest or weed control at 125 ppm (Phytophthora infestans): 0 to 60%
pest or weed control at 125 µg/mL [1]: 60 to 100%

C(#Cc1csc(Oc2ccccc2)n1)CCNc1ncnc2ccccc12 [compound 227]
pest or weed control at 125 µg/mL (Sphaerotheca fuliginea): 60 to 100%
pest or weed control at 125 ppm (Phytophthora infestans): 60 to 100%
pest or weed control at 125 µg/mL [1]: 60 to 100%

Cc1ccc(F)cc1C#CCCNc1ncnc2ccccc12 [compound 167]
pest or weed control at 125 µg/mL (Sphaerotheca fuliginea): 60 to 100%
pest or weed control at 125 ppm (Phytophthora infestans): 0 to 60%
pest or weed control at 125 µg/mL [1]: 60 to 100%

CC(F)c1ncnc(NCCC#Cc2ccccc2)c1I (stereo not drawn) [compound 374]
pest or weed control at 125 µg/mL (Sphaerotheca fuliginea): 60 to 100%
pest or weed control at 125 ppm (Phytophthora infestans): 0 to 60%
pest or weed control at 125 µg/mL [1]: 60 to 100%

FC(F)(F)c1ccccc1C#CCCNc1ncnc2c(Cl)cccc12 [compound 307]
pest or weed control at 125 µg/mL (Sphaerotheca fuliginea): 60 to 100%
pest or weed control at 125 ppm (Phytophthora infestans): 0 to 60%
pest or weed control at 125 µg/mL [1]: 60 to 100%

Fc1ccc(C#CCCNc2ncnc3ccccc23)cn1 [compound 194]
pest or weed control at 125 µg/mL (Sphaerotheca fuliginea): 60 to 100%
pest or weed control at 125 ppm (Phytophthora infestans): 0 to 60%
pest or weed control at 125 µg/mL [1]: 60 to 100%

C(#Cc1csc(Oc2ccccc2)n1)CCNc1ncnc2sccc12 [compound 83, 4-[4-(2-Phenoxythiazol-4-yl)-3-butynylamino]thieno[2,3-d]pyrimidine]
pest or weed control at 125 µg/mL (Sphaerotheca fuliginea): 60 to 100%
pest or weed control at 125 ppm (Phytophthora infestans): 0 to 60%
pest or weed control at 125 µg/mL [1]: 60 to 100%

COc1nc(C#CCCNc2ncnc3ccccc23)cs1 [compound 212]
pest or weed control at 125 µg/mL (Sphaerotheca fuliginea): 60 to 100%
pest or weed control at 125 ppm (Phytophthora infestans): 60 to 100%
pest or weed control at 125 µg/mL [1]: 60 to 100%

COc1ccccc1C#CCC(C)Nc1ncnc2ccccc12 (stereo not drawn) [compound 276]
pest or weed control at 125 µg/mL (Sphaerotheca fuliginea): 0 to 60%
pest or weed control at 125 ppm (Phytophthora infestans): 60 to 100%
pest or weed control at 125 µg/mL [1]: 60 to 100%

Cc1nc(C#CCC(C)Nc2ncnc3ccccc23)cs1 (stereo not drawn) [compound 292]
pest or weed control at 125 µg/mL (Sphaerotheca fuliginea): 60 to 100%
pest or weed control at 125 ppm (Phytophthora infestans): 60 to 100%
pest or weed control at 125 µg/mL [1]: 60 to 100%

CC(CC#Cc1ccccc1C(F)(F)F)Nc1ncnc2ccccc12 (stereo not drawn) [compound 274]
pest or weed control at 125 µg/mL (Sphaerotheca fuliginea): 60 to 100%
pest or weed control at 125 ppm (Phytophthora infestans): 60 to 100%
pest or weed control at 125 µg/mL [1]: 60 to 100%

CC(CC#Cc1cccc(C(F)(F)F)c1)Nc1ncnc2sccc12 (stereo not drawn) [compound 234]
pest or weed control at 125 µg/mL (Sphaerotheca fuliginea): 60 to 100%
pest or weed control at 125 ppm (Phytophthora infestans): 0 to 60%
pest or weed control at 125 µg/mL [1]: 60 to 100%

Ic1ccc(C#CCCNc2ncnc3ccccc23)cc1 [compound 98]
pest or weed control at 125 µg/mL (Sphaerotheca fuliginea): 60 to 100%
pest or weed control at 125 ppm (Phytophthora infestans): 0 to 60%
pest or weed control at 125 µg/mL [1]: 60 to 100%
